Test results as given in ChEMBL document CHEMBL1201862, “PubChem BioAssay data set” (2004).
Values belong to the molecule of their own block, whether it stands above or below them. Active and inactive are the calls of the source.

Assays:
[1] = target: Ras and Rab interactor 1/Tyrosine-protein kinase ABL1 (Homo sapiens, UniProt P00519+Q13671); assay type: functional;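 further: biochemical TR-FRET dose-response test measuring inhibition of binding between Rin1 and Abl proteins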
[2] = MC4R antagonists, dose response, counter-screen for LGR2 antagonist project, cell-based, plate reader, cherry pick (AID 743444); assay type: functional;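 further: transfected HEK 293 cells stimulated with alpha-MSH peptide; potency of inhibitors of the alpha-MSH evoked signal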
[3] = LGR2 antagonists, dose response, cell-based, HEK293, CRE-luciferase reporter, cherry pick, set 2 (AID 743343); assay type: functional;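 further: transfected cells were stimulated with diluted bursicon conditioned medium after compound addition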
[4] = system: INS1; assay: beta cell apoptosis inhibitors, cytokine rescue, dose response, luminescence, retest (AID 449756); assay type: functional, cell-based; conditions: Rattus norvegicus;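 further: cell death triggered by IL-1 beta plus TNF-alpha plus IFN-gamma mixture; protective hits raise ATP signal compared with cytokine alone wells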
[5] = control 3'UTR Renilla luciferase suppression, dose response, counter-screen for Shn3 inhibitor project, cell-based, Clone20-Shn3RL, cherry-picked (AID 624133); assay type: functional
[6] = Shn3 3'UTR reporter inhibitors, dose response, cell-based, Clone20 osteoblasts, firefly luciferase, cherry-picked (AID 624132); assay type: functional;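 further: firefly luciferase luminescence from reporter carrying the Shn3 3'UTR in osteoblasts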
[7] = target: T1, Carboxy-terminal domain RNA polymerase II polypeptide A small phosphatase 1 (Homo sapiens, UniProt Q9GZU7); assay: inhibitors of CTDSP1, concentration-response testing, biochemical assay, absorbance-based, actives from ultra-high-throughput screening (AID 540297); assay type: functional
T1 sequence (Q9GZU7 whole entry): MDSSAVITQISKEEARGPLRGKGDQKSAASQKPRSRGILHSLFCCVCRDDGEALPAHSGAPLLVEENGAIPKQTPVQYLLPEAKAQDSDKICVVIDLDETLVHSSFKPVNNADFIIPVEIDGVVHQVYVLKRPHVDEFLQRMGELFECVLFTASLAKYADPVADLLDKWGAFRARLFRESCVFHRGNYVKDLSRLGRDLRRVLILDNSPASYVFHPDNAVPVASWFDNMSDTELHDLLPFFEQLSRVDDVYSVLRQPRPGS

[8] = target: T2, DNA repair protein RAD52 homolog (Homo sapiens, UniProt P43351); assay type: functional, biochemical
T2 sequence (P43351 whole entry): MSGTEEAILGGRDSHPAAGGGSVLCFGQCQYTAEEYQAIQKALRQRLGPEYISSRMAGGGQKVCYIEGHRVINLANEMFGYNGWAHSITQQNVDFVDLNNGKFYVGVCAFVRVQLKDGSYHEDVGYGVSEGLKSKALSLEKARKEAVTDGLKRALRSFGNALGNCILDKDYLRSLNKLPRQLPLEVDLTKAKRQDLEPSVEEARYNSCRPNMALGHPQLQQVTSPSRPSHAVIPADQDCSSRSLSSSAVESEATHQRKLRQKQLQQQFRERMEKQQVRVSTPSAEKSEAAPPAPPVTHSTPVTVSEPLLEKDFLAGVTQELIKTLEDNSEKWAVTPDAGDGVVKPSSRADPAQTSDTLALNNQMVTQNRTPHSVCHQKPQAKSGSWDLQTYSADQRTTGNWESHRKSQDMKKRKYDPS

[9] = cytotoxicity toward NIH3T3 fibroblasts, dose response, counter-screen, cell-based, ATP luminescence, mouse fibroblasts (AID 2010); assay type: functional;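 further: cells exposed to compound for about 90 hours before reading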
[10] = target: T3, Ubiquitin-conjugating enzyme E2 N (Homo sapiens, UniProt P61088); assay type: functional;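 further: Dose-response confirmation in a TR-FRET assay detecting UBC13-driven polyubiquitin chain formation, inhibition measured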
T3 sequence (P61088 whole entry): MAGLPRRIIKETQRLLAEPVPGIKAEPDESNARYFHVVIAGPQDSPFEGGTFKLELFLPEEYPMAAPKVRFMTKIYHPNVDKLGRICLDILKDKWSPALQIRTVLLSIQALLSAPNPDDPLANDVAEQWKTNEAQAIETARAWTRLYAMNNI

[11] = Luminescence Cell-Based Dose Retest to Confirm Inhibitors of Cancer Stem Cells. [Related pubchem assays (depositor defined):AID2717, AID2721]; assay type: functional; conditions: Homo sapiens
[12] = inhibitors of intracellular T. cruzi replication, confirmation, NIH3T3 host cells, beta-gal luminescence (AID 2044); assay type: functional, cell-based;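 further: intracellular parasites grown in NIH/3T3 mouse fibroblasts as host cells; luminescent beta-galactosidase reporter signal from transgenic T. cruzi replicating inside host cells; inhibitors lower the luminescence signal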

Sequence of Ras and Rab interactor 1/Tyrosine-protein kinase ABL1 (P00519 whole entry): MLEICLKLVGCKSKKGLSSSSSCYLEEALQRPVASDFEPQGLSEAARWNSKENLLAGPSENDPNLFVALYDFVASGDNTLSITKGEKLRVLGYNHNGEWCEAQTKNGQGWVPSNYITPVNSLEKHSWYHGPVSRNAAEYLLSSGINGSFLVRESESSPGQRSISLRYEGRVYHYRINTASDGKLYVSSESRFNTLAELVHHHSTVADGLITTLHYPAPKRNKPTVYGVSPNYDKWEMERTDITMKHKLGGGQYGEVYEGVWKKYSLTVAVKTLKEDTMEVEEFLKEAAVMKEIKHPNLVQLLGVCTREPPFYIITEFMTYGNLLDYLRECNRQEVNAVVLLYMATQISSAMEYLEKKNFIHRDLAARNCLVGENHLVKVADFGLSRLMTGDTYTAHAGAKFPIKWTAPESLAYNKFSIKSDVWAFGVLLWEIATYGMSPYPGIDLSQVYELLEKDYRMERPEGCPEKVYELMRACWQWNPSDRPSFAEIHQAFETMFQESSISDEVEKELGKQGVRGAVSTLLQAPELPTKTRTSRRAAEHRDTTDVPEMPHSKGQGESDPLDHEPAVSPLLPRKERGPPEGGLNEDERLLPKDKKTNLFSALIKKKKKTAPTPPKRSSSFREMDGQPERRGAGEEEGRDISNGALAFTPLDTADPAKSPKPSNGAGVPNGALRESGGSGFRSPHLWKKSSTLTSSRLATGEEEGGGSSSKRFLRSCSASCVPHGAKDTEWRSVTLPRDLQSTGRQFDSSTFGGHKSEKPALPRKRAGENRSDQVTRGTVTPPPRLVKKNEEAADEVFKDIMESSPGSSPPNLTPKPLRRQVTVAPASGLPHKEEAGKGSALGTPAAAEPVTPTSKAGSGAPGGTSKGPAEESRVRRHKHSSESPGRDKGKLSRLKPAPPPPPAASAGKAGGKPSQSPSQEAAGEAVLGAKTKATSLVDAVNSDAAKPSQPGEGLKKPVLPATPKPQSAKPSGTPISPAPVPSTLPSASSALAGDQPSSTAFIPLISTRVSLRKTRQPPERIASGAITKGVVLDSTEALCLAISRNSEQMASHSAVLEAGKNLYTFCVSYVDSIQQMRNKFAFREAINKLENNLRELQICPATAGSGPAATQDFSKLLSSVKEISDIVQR
Sequence of Ras and Rab interactor 1/Tyrosine-protein kinase ABL1 (Q13671 whole entry): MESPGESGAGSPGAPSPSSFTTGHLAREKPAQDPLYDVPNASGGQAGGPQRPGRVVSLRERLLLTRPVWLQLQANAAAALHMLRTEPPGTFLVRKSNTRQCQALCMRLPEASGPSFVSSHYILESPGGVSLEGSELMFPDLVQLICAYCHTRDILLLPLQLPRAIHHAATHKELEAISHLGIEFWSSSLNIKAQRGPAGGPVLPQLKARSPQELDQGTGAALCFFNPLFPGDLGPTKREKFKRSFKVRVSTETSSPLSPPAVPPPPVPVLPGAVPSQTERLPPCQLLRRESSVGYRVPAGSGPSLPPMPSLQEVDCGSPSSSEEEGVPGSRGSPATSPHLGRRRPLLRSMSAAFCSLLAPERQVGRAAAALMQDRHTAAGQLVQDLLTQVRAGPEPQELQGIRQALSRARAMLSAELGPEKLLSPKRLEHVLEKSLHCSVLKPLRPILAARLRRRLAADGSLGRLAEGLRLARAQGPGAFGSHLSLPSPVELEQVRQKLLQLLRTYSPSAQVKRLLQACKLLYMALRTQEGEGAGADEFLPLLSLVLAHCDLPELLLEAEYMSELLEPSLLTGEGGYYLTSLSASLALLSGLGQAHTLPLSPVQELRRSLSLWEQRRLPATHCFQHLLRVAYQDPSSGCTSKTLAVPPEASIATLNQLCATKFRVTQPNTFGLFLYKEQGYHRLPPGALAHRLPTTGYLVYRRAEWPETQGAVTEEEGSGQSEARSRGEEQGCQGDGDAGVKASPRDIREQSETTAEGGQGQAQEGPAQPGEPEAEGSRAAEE

SMILES: COc1ccc2nc(NC(=O)CCc3nc(C4=CCN(C)CC4)no3)sc2c1
IC50 [1]: 1.4 µM (active)

SMILES: C=CCNc1nc(-c2cc3ccccc3o2)cs1
AC50 [2]: 15.2 µM (active)
AC50 [3]: 13.9 µM (active)

SMILES: COCCn1c(SCC(=O)/C=C2\N(C)c3ccccc3C2(C)C)nnc1-c1ccncc1
AC50 [4]: 6.34 µM (active)
AC50 [5]: 5.61 µM (active)
AC50 [6]: 2.65 µM (active)

SMILES: CCN1CCN(CCCNC(=O)c2ccc(/C=C3/Sc4ccccc4N(Cc4ccccc4F)C3=O)cc2)CC1
AC50 [8]: 8.67 µM (active)
EC50 [9]: 22.8 µM (active)
IC50 [10]: > 20 µM (inactive)
AC50 [11]: 2.41 µM (active)
EC50 [12]: 1.07 µM (active)

SMILES: NC(=O)C(CC(=O)O)NC(=O)[C@@H]1CCCNc2c(I)cc([N+](=O)[O-])cc2C(=O)N[C@@H](CO)C(=O)N[C@@H](Cc2ccc(O)cc2)C(=O)N1 (stereo partly drawn)
IC50 [7]: 19.7 µM (active)

More lines, now with the values ahead:

IC50 [1]: > 73.5 µM (inactive)
SMILES: COC(=O)c1c(C)nc(C)c2c(=O)oc3ccccc3c12

IC50 [7]: 6.96 µM (active)
SMILES: Cc1ccc(Cl)cc1N1CCN(C(=O)CSc2ccsc2[N+](=O)[O-])CC1

IC50 [7]: 4.41 µM (active)
SMILES: O=C(COC(=O)c1cccc(S(=O)(=O)N2CCN(c3ccccc3)CC2)c1)NCc1ccco1

IC50 [7]: 7.44 µM (active)
SMILES: CC(=O)Nc1ccc(S(=O)(=O)NC2=NC(=O)/C(=C\c3ccco3)S2)cc1

IC50 [1]: 31.8 µM (inactive)
SMILES: O=C1N(c2cccc(Cl)c2)C(c2ccc(Cl)cc2)N2CCCN12 (stereo not drawn)

IC50 [7]: 7.34 µM (active)
SMILES: O=C(Cc1ccc(S(=O)(=O)N2CCOCC2)s1)NC1CCCCC1
